The record followed here is patent US20260216294A1, “BETA 2-ADRENERGIC RECEPTOR AGONISTS FOR TREATMENT OR PREVENTION OF MUSCLE WASTING” (ATROGI AB, priority 2023, published 2026).

Test [1] has as its system L6-myotubes. Description: Glucose uptake in differentiated L6-myotubes (Biological Example 2). The following applies: for Emax at 10 µM: read-out: Biological example 2 (GU). Type of test: cell-based. The gist of the method:
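Differentiated L6 myotubes were serum-starved overnight in 0.5% fatty-acid-free BSA and then stimulated with compound or isoprenaline at 1×10^−5 M final. After 1 h 40 min cells were washed and re-dosed in glucose-free medium. Twenty minutes later, uptake of 50 nM ^3H-2-deoxyglucose over 10 min was measured by scintillation counting of NaOH lysates.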

Test [2] relates to L6-myotubes. Description: Measurement of intracellular cAMP levels in differentiated L6-myotubes (Biological Example 3). Particulars: for Emax at 10 µM: 0.25 h. Type of test: cell-based. The gist of the method: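 Serum-starved differentiated L6 myotubes stimulated 15 min with test compound at 1×10^−5 M final (isoprenaline as reference) in HBSS with 1% BSA, 5 mM HEPES, 1 mM IBMX, pH 7.4. Cells EtOH-extracted, lysed, and intracellular cAMP measured by AlphaScreen.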

Setting [3] is: glucose uptake in differentiated L6-myotubes, compound at 10 μM, activity relative to isoproterenol at 10 μM.
The mark [4] stands for this setting: intracellular cAMP in differentiated L6-myotubes, compound at 10 μM, activity relative to isoproterenol at 10 μM.
Setting [5] is: glucose uptake, compound at 10 μM relative to isoproterenol at 10 μM.
Setting [6] is: intracellular cAMP, compound at 10 μM relative to isoproterenol at 10 μM.

As for `CC(C)(C[C@H]1CC[C@@H](O)CC1)NC[C@H](O)c1cncc(F)c1` [Compound 301, (R)-2-{1,1-dimethyl-2-[(1s,4S)-4-hydroxycyclohexyl]ethylamino}-1-(5-fluoro-3-pyridyl)-1-ethanol], the Emax at 10 µM in the test with L6-myotubes [1] (setting [3]) is greater than 75%; in the test with L6-myotubes [2] (setting [4]), less than 25%.
On the same counts, the results for `CC(C)(NC[C@H](O)c1cccc(F)c1)[C@H]1CC[C@H](OCC(=O)O)CC1` [Compound 402] are 50 to 75% and less than 25%.
Consider `CCC[C@@H]1CC[C@H]([C@H](O)c2cncc(F)c2)N1` [Compound 161], for which the “Biological example 2 (GU)” value in the test with L6-myotubes [1] (setting [5]) was “+ (if it is between 50 and 25% it is denoted with +)”. Moreover, in the test on L6-myotubes [2] (setting [6]), the “Biological example 3 (CAMP)” value is “− (if it less than 25% it is denoted with −)”.
Regarding `CC(C)(CC[C@H]1CC[C@H](C(=O)O)CC1)NC[C@H](O)c1cccc(F)c1` [Compound 348, (1R,4r)-4-{3-[(R)-2-(m-fluorophenyl)-2-hydroxyethylamino]-3-methylbutyl} cyclohexanecarboxylic acid], the Emax at 10 µM in the test with L6-myotubes [1] (setting [3]) and in the test on L6-myotubes [2] (setting [4]) was less than 25% each time.
For `CC(=O)N[C@H]1CC[C@H](CNC[C@H](O)c2cncc(F)c2)CC1` [Compound 309], the Emax at 10 µM in the test with L6-myotubes [1] (setting [3]) was 50 to 75%; with L6-myotubes [2] (setting [4]) it was less than 25%.
Turning to `CCC[C@@H](C)NC[C@H](O)c1cccc(O)c1` [Compound 28, (R)-2-[(R)-1-methylbutylamino]-1-(m-hydroxyphenyl)-1-ethanol], the Emax at 10 µM in the test on L6-myotubes [1] (setting [5]) is greater than 75%; with L6-myotubes [2] (setting [6]), 50 to 75%.
On to `CS(=O)(=O)N[C@H]1CC[C@@H](CNC[C@H](O)c2cncc(F)c2)CC1` [Compound 314, (R)-1-(5-fluoro-3-pyridyl)-2-({[(1s,4S)-4-(mesylamino)cyclohexyl]methyl}amino)-1-ethanol], for which the figures for the Emax at 10 µM in the test with L6-myotubes [1] (setting [3]) and in the test on L6-myotubes [2] (setting [4]) were 50 to 75% and less than 25%, respectively.
Take `CC(C)(C)NC[C@H](O)c1cccc(N)c1F` [Compound 91, (R)-1-(3-amino-2-fluorophenyl)-2-(tert-butylamino)-1-ethanol]: the Emax at 10 µM in the test on L6-myotubes [1] (setting [5]) was greater than 75%; in the test with L6-myotubes [2] (setting [6]), 25 to 50%.
As for `O[C@@H](c1cccc(F)c1)C12CCC(COCc3ccc(F)cc3)(CC1)N2` [Compound 438, (S)-(m-fluorophenyl)(4-{[(p-fluorophenyl)methoxy]methyl}-7-azabicyclo[[2.2.1]]hept-1-yl)methanol], the Emax at 10 µM with L6-myotubes [1] (setting [3]) and with L6-myotubes [2] (setting [4]) was less than 25% throughout.
With `CO[C@H]1CCC[C@@H](C(C)(C)NC[C@H](O)c2cncc(F)c2)C1` [Compound 270, (R)-2-{1-[(1R,3S)-3-methoxycyclohexyl]-1-methylethylamino}-1-(5-fluoro-3-pyridyl)-1-ethanol], the Emax at 10 µM in the test on L6-myotubes [1] (setting [3]) is greater than 75%; with L6-myotubes [2] (setting [4]), 50 to 75%.
On the same counts, the results for `CC(=O)N[C@H]1CC[C@H](CC(C)(C)NC[C@H](O)c2cccnc2C)CC1` [Compound 434] are greater than 75% and less than 25%.
With `CNS(=O)(=O)[C@H]1CC[C@H](CC(C)(C)NC[C@H](O)c2cncc(F)c2)CC1` [Compound 478, (R)-2-{1,1-dimethyl-2-[(1r,4R)-4-(methylaminosulfonyl)cyclohexyl]ethylamino}-1-(5-fluoro-3-pyridyl)-1-ethanol], the Emax at 10 µM in the test with L6-myotubes [1] (setting [3]) is 25 to 50%; in the test on L6-myotubes [2] (setting [4]), less than 25%.
On to `CC(C)(CC[C@H]1CC[C@@H](C(=O)O)CC1)NC[C@H](O)c1cccc(F)c1` [Compound 352, (1S,4s)-4-{3-[(R)-2-(m-fluorophenyl)-2-hydroxyethylamino]-3-methylbutyl} cyclohexanecarboxylic acid], for which the Emax at 10 µM was 25 to 50% in the test on L6-myotubes [1] (setting [3]) and less than 25% with L6-myotubes [2] (setting [4]).
On the same counts, the results for `O[C@H](c1cccc(F)c1)C12CCC(C/C=C/c3ccccc3)(CC1)N2` [Compound 534] are greater than 75% and less than 25%.
With `CC1(C)CC[C@H]([C@H](O)c2ccc(F)cc2)N1` [Compound 173], the Emax at 10 µM in the test with L6-myotubes [1] (setting [5]) was 50 to 75%; in the test on L6-myotubes [2] (setting [6]) it was less than 25%.
On the same counts, the results for `CC12CCC([C@H](O)c3ccccc3F)(CC1)N2` [Compound 181, (R)-(o-fluorophenyl)(4-methyl-7-azabicyclo[[2.2.1]]hept-1-yl)methanol] are greater than 75% and less than 25%.
For the compound `COc1ccc(C[C@H]2CC[C@H]([C@@H](O)c3cncc(F)c3)N2)cc1` [Compound 380, (S)-{(2R,5R)-5-[(p-methoxyphenyl)methyl]-2-pyrrolidinyl}(5-fluoro-3-pyridyl)methanol], the Emax at 10 µM was greater than 75% in the test on L6-myotubes [1] (setting [3]) and less than 25% in the test on L6-myotubes [2] (setting [4]).
For `CS(=O)(=O)N(Cc1ccccc1)[C@H]1CC[C@@H](C[C@@H]2CC[C@H]([C@H](O)c3cccc(F)c3)N2)CC1` [Compound 508, (R)-[(2R,5S)-5-({(1s,4R)-4-[(benzyl)-N-mesylamino]cyclohexyl}methyl)-2-pyrrolidinyl](m-fluorophenyl)methanol], the Emax at 10 µM in the test with L6-myotubes [1] (setting [3]) and in the test with L6-myotubes [2] (setting [4]) was less than 25% throughout.
As for `CC(C)(C[C@H]1CC[C@H](C(=O)O)CC1)NC[C@H](O)c1cccc(F)c1` [Compound 355, (1R,4r)-4-{2-[(R)-2-(m-fluorophenyl)-2-hydroxyethylamino]-2-methylpropyl} cyclohexanecarboxylic acid], the Emax at 10 µM with L6-myotubes [1] (setting [3]) is 50 to 75%; in the test with L6-myotubes [2] (setting [4]), less than 25%.
Turning to `CC12CC(C1)[C@H]([C@H](O)c1ccccc1F)N2` [Compound 210], the Emax at 10 µM in the test with L6-myotubes [1] (setting [3]) and in the test on L6-myotubes [2] (setting [4]) was greater than 75% in each case.
On to `CC(C)(C[C@H]1CC[C@@H](N)CC1)NC[C@@H](O)c1cccc(C#N)n1` [Compound 416], for which the Emax at 10 µM in the test on L6-myotubes [1] (setting [3]) is 50 to 75%; in the test with L6-myotubes [2] (setting [4]), less than 25%.
The like results for `CC(C)(C[C@H]1CC[C@@H](NS(C)(=O)=O)CC1)NC[C@H](O)c1cccc(F)c1` [Compound 453, (R)-2-{1,1-dimethyl-2-[(1s,4S)-4-(mesylamino)cyclohexyl]ethylamino}-1-(m-fluorophenyl)-1-ethanol] were, in that order, greater than 75% and less than 25%.
On the same counts, the results for `CS(=O)(=O)Nc1ccc(CC23CCC([C@@H](O)c4cccc(F)c4)(CC2)N3)cc1` [Compound 474, (S)-(m-fluorophenyl)(4-{[p-(mesylamino)phenyl]methyl}-7-azabicyclo[[2.2.1]]hept-1-yl)methanol] are 50 to 75% and less than 25%.
`CCCCNC[C@H](O)c1cnc(N)s1` [Compound 75, (S)-1-(2-amino-1,3-thiazol-5-yl)-2-(butylamino)-1-ethanol]: the Emax at 10 µM with L6-myotubes [1] (setting [5]) was 25 to 50%; in the test with L6-myotubes [2] (setting [6]), less than 25%.
Turning to `O[C@@H](c1cncc(F)c1)C12CCC(C/C=C/c3ccccc3)(CC1)N2` [Compound 529, (S)-{4-[(E)-3-phenyl-2-propenyl]-7-azabicyclo[[2.2.1]]hept-1-yl}(5-fluoro-3-pyridyl)methanol], the Emax at 10 µM in the test with L6-myotubes [1] (setting [3]) was 25 to 50%; with L6-myotubes [2] (setting [4]), less than 25%.
As for `CC1(C)C[C@H]([C@@H](O)c2cccc(F)c2)N1` [Compound 201], the Emax at 10 µM in the test on L6-myotubes [1] (setting [3]) and in the test with L6-myotubes [2] (setting [4]) was less than 25% throughout.
In the case of `CC(C)(NC[C@H](O)c1cncc(F)c1)[C@H]1CC[C@@H](C(=O)O)CC1` [Compound 323, (1S,4s)-8-[(R)-2-(5-fluoro-3-pyridyl)-2-hydroxyethylamino]-7-hydroxy-p-menthan-7-one], the Emax at 10 µM in the test on L6-myotubes [1] (setting [3]) was in the range of 25 to 50%; in the test with L6-myotubes [2] (setting [4]), 50 to 75%.
In the case of `Oc1ccc(C(O)CNCC2CCCCC2)cc1` (centres unmarked) [Compound 6, 2-[(cyclohexylmethyl)amino]-1-(p-hydroxyphenyl)-1-ethanol], the Emax at 10 µM in the test on L6-myotubes [1] (setting [5]) is greater than 75%; with L6-myotubes [2] (setting [6]) it was less than 25%.
Consider `CC1(C)CC[C@H]([C@H](O)c2ccccc2Cl)N1` [Compound 152, (R)-[(R)-5,5-dimethyl-2-pyrrolidinyl](o-chlorophenyl)methanol], for which the Emax at 10 µM with L6-myotubes [1] (setting [5]) was greater than 75%; with L6-myotubes [2] (setting [6]), less than 25%.
For the compound `CC(C)(NC[C@H](O)c1cccc(F)c1)[C@H]1CC[C@H](C(=O)O)CC1` [Compound 368, (1R,4r)-8-[(R)-2-(m-fluorophenyl)-2-hydroxyethylamino]-7-hydroxy-p-menthan-7-one], the Emax at 10 µM is 25 to 50% with L6-myotubes [1] (setting [3]) and less than 25% with L6-myotubes [2] (setting [4]).
Take `CCC[C@@H]1CC[C@H]([C@@H](O)c2cccc(F)c2)N1` [Compound 126]: the Emax at 10 µM with L6-myotubes [1] (setting [5]) is 25 to 50%; in the test on L6-myotubes [2] (setting [6]) it was less than 25%.
On to `CC(C)(NC[C@H](O)c1cncc(F)c1)[C@H]1CC[C@H](O)CC1` [Compound 285, (R)-1-(5-fluoro-3-pyridyl)-2-{1-methyl-1-[(1r,4R)-4-hydroxycyclohexyl]ethylamino}-1-ethanol], for which the Emax at 10 µM was 50 to 75% in the test on L6-myotubes [1] (setting [3]) and less than 25% in the test with L6-myotubes [2] (setting [4]).
As to `CO[C@H]1CC[C@@H](CC(C)(C)NC[C@H](O)c2cncc(F)c2)CC1` [Compound 248, (R)-2-{1,1-dimethyl-2-[(1s,4S)-4-methoxycyclohexyl]ethylamino}-1-(5-fluoro-3-pyridyl)-1-ethanol], the figures for the Emax at 10 µM in the test on L6-myotubes [1] (setting [3]) and in the test on L6-myotubes [2] (setting [4]) were greater than 75% and less than 25%, respectively.
Turning to `CCCCNCC(O)c1ccc(F)c(N)c1` (centres unmarked) [Compound 44, 1-(3-amino-4-fluorophenyl)-2-(butylamino)-1-ethanol], the figures for the Emax at 10 µM in the test with L6-myotubes [1] (setting [5]) and in the test with L6-myotubes [2] (setting [6]) were 50 to 75% and less than 25%, respectively.
